“And” between values parts separate entries of the source, which are not always exact repeats. Equal entries are not always repeated.
Columns and labels:
[1] = target: T1, p75^NTR TMD (Homo sapiens, UniProt P08138); test: AraTM assay, wild-type p75NTR TMD (GFP/OD630); type: cell-based; details: for GFP/OD630, p75, mean / GFP/OD630, p75NTR WT, Mean: N=3; for GFP/OD630, p75NTR WT, n1-n3: WT without drug = 100%; for GFP/OD630, Mean / GFP/OD630, individual replicates: Figure 5B
T1 sequence (P08138 250-275 limits assumed): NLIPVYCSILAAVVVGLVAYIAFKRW

[2] = target: T2, p75^NTR TMD P253G (Homo sapiens, UniProt P08138, P253G); test: AraTM assay, P253G mutant p75NTR TMD; type: cell-based; details: for GFP/OD630, p75NTR P253G, Mean: N=3
T2 construct: Comparison of wild-type (WT) p75^NTR TMD and I252A, P253G and V254A mutants in the AraTM assay; expressed in transfected cells; host or cells: E. coli AS19 (LPS-negative)
T2 sequence (P08138 251-272 P253G limits assumed): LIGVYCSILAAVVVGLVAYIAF

[3] = system: A875 NT cells; test: Boyden chamber chemotaxis/invasion assay, A875 NT; type: cell-based, human; details: for Fold change - invading cells, Mean / Fold change - invading cells, individual replicates: 1μM; for Fold change (invading cells), Mean: N=3
Description: For Boyden chamber assay, Corning® BioCoat™ Matrigel® Invasion Chambers 8.0 µm PET Membrane were used (cat. no. 354480). A875 NT or WM115 cells were serum-starved for 16 h and then seeded at 60,000 cells per well in serum-free media under different conditions, including DMSO (vehicle) or small molecules Div17E5 or Np75-4A22 at different concentrations to the top chamber of the Matrigel-coated trans-well chamber. The pan-caspase inhibitor Q_VD_poH (at 5 µM) was also introduced in the top chamber in some experiments. Two different chemoattractants, NGF (at 50 ng/ml or 100 ng/ml as indicated) or 10% FBS were added to the bottom chamber. Assays were carried out for 8 h after which filters were fixed in 4% PFA and stained with DAPI. Cells that had remained on the top of the filter were gently scrapped away with a cotton tip. The filter lower side was imaged on an inverted fluorescence microscope and counted using ImageJ software (NIH).

[4] = target: T3, p75^NTR TMD I252A (Homo sapiens, UniProt P08138, I252A); test: AraTM assay, I252A mutant p75NTR TMD; type: cell-based; details: for GFP/OD630, p75NTR I252A, Mean: N=3
T3 construct: Comparison of wild-type (WT) p75^NTR TMD and I252A, P253G and V254A mutants in the AraTM assay; expressed in transfected cells; host or cells: E. coli AS19 (LPS-negative)
T3 sequence (P08138 250-275 I252A): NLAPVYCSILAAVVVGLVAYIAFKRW

[5] = 5μM Q_VD_pOH + 10uM Div17E5, With NGF
[6] = 5μM Q_VD_pOH + 10uM Div17E5, without NGF

SMILES: Oc1ccc(-c2cncc(Nc3ccc(Br)c(Cl)c3)n2)cc1 [Div17E5]
- GFP/OD630, p75, single replicates ([1]; Div17E5 1 μM): 95 and 91 and 115
- GFP/OD630, p75, mean ([1]; Div17E5 1 μM): 100
- GFP/OD630, p75, single replicates ([1]; Div17E5 2.5 μM): 82 and 86 and 101
- GFP/OD630, p75, mean ([1]; Div17E5 2.5 μM): 90
- GFP/OD630, p75, single replicates ([1]; Div17E5 5 μM): 66 and 81 and 88
- GFP/OD630, p75, mean ([1]; Div17E5 5 μM): 78
- GFP/OD630, p75NTR WT, Mean ([1]; Div17E5 7.5 uM): 69%
- GFP/OD630, p75NTR WT, n1-n3 ([1]; Div17E5 7.5 uM): 70% and 62% and 76%
- GFP/OD630, p75, single replicates ([1]; Div17E5 10 μM): 49 and 55 and 68
- GFP/OD630, p75, mean ([1]; Div17E5 10 μM): 57
- GFP/OD630, p75NTR WT, Mean ([1]; Div17E5 15 uM): 61%
- GFP/OD630, p75NTR WT, n1-n3 ([1]; Div17E5 15 uM): 62% and 58% and 63%
- GFP/OD630, p75, single replicates ([1]; Div17E5 20 μM): 39 and 55 and 49
- GFP/OD630, p75NTR WT, Mean ([1]; Div17E5 20 uM): 45%
- GFP/OD630, p75, mean ([1]; Div17E5 20 μM): 48
- GFP/OD630, p75NTR WT, n1-n3 ([1]; Div17E5 20 uM): 50% and 41% and 44%
- GFP/OD630, p75, single replicates ([1]; Div17E5 50 μM): 33 and 42 and 39
- GFP/OD630, p75NTR WT, Mean ([1]; Div17E5 50 uM): 45%
- GFP/OD630, p75, mean ([1]; Div17E5 50 μM): 38
- GFP/OD630, p75NTR WT, n1-n3 ([1]; Div17E5 50 uM): 43% and 46% and 47%
- GFP/OD630, Mean ([1]; compound 2 μM): 0.93
- GFP/OD630, individual replicates ([1]; compound 2 μM): 0.98 and 0.93 and 0.88
- GFP/OD630, Mean ([1]; compound 4 μM): 0.86
- GFP/OD630, individual replicates ([1]; compound 4 μM): 0.83 and 0.92 and 0.82
- GFP/OD630, Mean ([1]; compound 6 μM): 0.82
- GFP/OD630, individual replicates ([1]; compound 6 μM): 0.86 and 0.78 and 0.83
- GFP/OD630, Mean ([1]; compound 8 μM): 0.44
- GFP/OD630, individual replicates ([1]; compound 8 μM): 0.43 and 0.51 and 0.37
- GFP/OD630, Mean ([1]; compound 10 μM): 0.43
- GFP/OD630, individual replicates ([1]; compound 10 μM): 0.41 and 0.48 and 0.40
- IC50 ([1]; dose-response): 12 µM
- selectivity for the p75NTR TMD as compared to TMDs of two unrelated proteins ([1]; vs α2β3 integrin and M2 TMDs): good selectivity
- effect of Pro253 mutation on compound activity in AraTM assay [2]: had no effect
- GFP/OD630, p75NTR P253G, n1-n3 ([2]; Div17E5 7.5 uM): 62% and 68% and 61%
- GFP/OD630, p75NTR P253G, Mean ([2]; Div17E5 7.5 uM): 64%
- GFP/OD630, p75NTR P253G, n1-n3 ([2]; Div17E5 15 uM): 61% and 77% and 66%
- GFP/OD630, p75NTR P253G, Mean ([2]; Div17E5 15 uM): 68%
- GFP/OD630, p75NTR P253G, n1-n3 ([2]; Div17E5 20 uM): 59% and 49% and 56%
- GFP/OD630, p75NTR P253G, Mean ([2]; Div17E5 20 uM): 55%
- GFP/OD630, p75NTR P253G, n1-n3 ([2]; Div17E5 50 uM): 57% and 56% and 59%
- GFP/OD630, p75NTR P253G, Mean ([2]; Div17E5 50 uM): 57%
- NGF-induced chemotaxis [3]: strongly inhibited
- background cell migration in the absence of NGF [3]: did not significantly affect background cell migration
- Fold change - invading cells, Mean ([3]; NGF): 1.91
- Fold change - invading cells, individual replicates ([3]; NGF): 1.80 and 1.91 and 2.02
- Fold change - invading cells, Mean ([3]; no NGF): 0.91
- Fold change - invading cells, individual replicates ([3]; no NGF): 0.87 and 0.90 and 0.95
- NGF activity in Boyden chamber assay of cell chemotaxis ([3]; 1 μM, NGF 50 ng/ml): inactive
- Fold change (invading cells), n1-n3 [3, 5]: 0.46 Fold and 0.84 Fold and 0.68 Fold
- Fold change (invading cells), Mean [3, 5]: 0.66 Fold
- Fold change (invading cells), n1-n3 [3, 6]: 0.94 Fold and 0.80 Fold
- Fold change (invading cells), Mean [3, 6]: 0.89 Fold
- Fold change (invading cells), n1-n3 ([3]; 10μM Div17E5, With NGF): 0.42 Fold and 0.37 Fold and 0.47 Fold
- Fold change (invading cells), Mean ([3]; 10μM Div17E5, With NGF): 0.42 Fold
- Fold change (invading cells), n1-n3 ([3]; 10μM Div17E5, without NGF): 0.87 Fold and 0.75 Fold and 0.76 Fold
- Fold change (invading cells), Mean ([3]; 10μM Div17E5, without NGF): 0.79 Fold
- effect of Ile252 mutation on compound activity in AraTM assay [4]: abolished
- GFP/OD630, p75NTR I252A, n1-n3 ([4]; Div17E5 7.5 uM): 99% and 104% and 92%
- GFP/OD630, p75NTR I252A, Mean ([4]; Div17E5 7.5 uM): 98%
- GFP/OD630, p75NTR I252A, n1-n3 ([4]; Div17E5 15 uM): 98% and 107% and 87%
- GFP/OD630, p75NTR I252A, Mean ([4]; Div17E5 15 uM): 97%
- GFP/OD630, p75NTR I252A, n1-n3 ([4]; Div17E5 20 uM): 96% and 91% and 100%
- GFP/OD630, p75NTR I252A, Mean ([4]; Div17E5 20 uM): 96%
- GFP/OD630, p75NTR I252A, n1-n3 ([4]; Div17E5 50 uM): 99% and 106% and 92%
- GFP/OD630, p75NTR I252A, Mean ([4]; Div17E5 50 uM): 99%

Reference: paper PMC12514245, “Impaired migration and lung invasion of human melanoma by a novel small molecule targeting the transmembrane domain of death receptor p75^NTR” (EMBO Molecular Medicine, 2025)
